Converted amounts (≈) assume the structure as drawn. Bounds are passed on as bounds.

In series [1] the target is T1, Mitogen-activated protein kinase 12 (Homo sapiens, UniProt P53778).
T1 sequence (P53778 whole entry): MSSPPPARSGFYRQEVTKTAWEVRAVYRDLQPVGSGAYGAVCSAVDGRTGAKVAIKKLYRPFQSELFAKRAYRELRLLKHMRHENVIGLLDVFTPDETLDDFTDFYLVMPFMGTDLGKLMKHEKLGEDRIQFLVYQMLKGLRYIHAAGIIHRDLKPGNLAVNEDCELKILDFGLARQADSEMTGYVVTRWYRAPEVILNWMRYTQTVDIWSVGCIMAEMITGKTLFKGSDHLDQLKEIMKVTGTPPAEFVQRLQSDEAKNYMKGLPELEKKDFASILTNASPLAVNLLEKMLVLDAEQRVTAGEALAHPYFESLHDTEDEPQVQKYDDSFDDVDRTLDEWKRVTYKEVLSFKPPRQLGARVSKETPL
Put plainly: Inhibition of p38-gamma.

The species entered for a further series is Homo sapiens. Put plainly: Inhibition of LPS-induced TNFalpha production in human whole blood. It is filed as functional, organism-based.
Series [2] addresses Ribosomal protein S6 kinase alpha-1 (Homo sapiens, UniProt Q15418). Nature of the series: Inhibition of MAPKAP-K1a.
Series [3] concerns the target T2, Serine/threonine-protein kinase Sgk1 (Homo sapiens, UniProt O00141).
T2 sequence (O00141 whole entry): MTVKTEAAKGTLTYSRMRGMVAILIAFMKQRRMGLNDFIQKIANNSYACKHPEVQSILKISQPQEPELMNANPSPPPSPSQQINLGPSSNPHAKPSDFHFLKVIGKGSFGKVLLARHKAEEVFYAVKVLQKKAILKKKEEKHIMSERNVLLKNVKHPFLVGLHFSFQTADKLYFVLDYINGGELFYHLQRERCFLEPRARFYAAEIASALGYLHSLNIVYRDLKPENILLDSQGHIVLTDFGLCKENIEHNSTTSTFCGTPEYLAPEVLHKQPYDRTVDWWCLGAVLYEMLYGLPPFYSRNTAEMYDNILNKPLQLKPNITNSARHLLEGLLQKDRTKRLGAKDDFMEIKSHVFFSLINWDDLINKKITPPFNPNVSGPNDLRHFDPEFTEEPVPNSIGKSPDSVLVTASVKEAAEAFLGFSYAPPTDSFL
Put plainly: Inhibition of SGK.

Series [4] in a line: Hepatocyte microsomal extraction ratio in human. The conditions noted are these: hepatic microsomes.
Series [5] concerns the target MAP kinase-activated protein kinase 2 (Homo sapiens, UniProt P49137). Put plainly: Inhibition of MAPKAP-K2.
A short description of series [6]: Plasma clearance in rat. It is filed as ADME, organism-based.
Series [7] in a line: Plasma clearance in monkey. In kind it is ADME, organism-based, Macaca mulatta. As to conditions: rhesus monkey.
Series [8] in a line: Volume of distribution in rat. In kind it is ADME, organism-based. The conditions noted are these: in vivo, read-out: Vdss.
The nature of series [9]: Solubility in PBS buffer at ph 6.5. In kind it is physicochemical.
Another series concerns the target hERG (KCNH2) (Homo sapiens, UniProt Q12809). Nature of the series: Inhibition of hERG channel current in HEK293 cells at 3 uM. The conditions noted are these: HEK293 cells that express hERG. In kind it is toxicity, cell-based. Background: hERG is a cardiac potassium channel; its block is linked to QT prolongation.
Series [10] is described as follows: Half life in monkey. In kind it is ADME, organism-based, Macaca mulatta. As to conditions: rhesus monkey, in vivo.
Series [11] in a line: Volume of distribution in monkey. It is filed as ADME, organism-based, Macaca mulatta. The conditions noted are these: rhesus monkey, in vivo; read-out: Vdss.
The species named for another series is Rattus norvegicus. Put plainly: Inhibition of LPS-induced TNFalpha release in rat. In kind it is functional.
Series [12] is described as follows: Bioavailability in monkey. In kind it is ADME, organism-based, Macaca mulatta. The conditions noted are these: rhesus monkey, in vivo.
Series [13] is described as follows: Half life in rat. It is filed as ADME, organism-based. As to conditions: in vivo.
A short description of series [14]: Bioavailability in rat. In kind it is ADME, organism-based. The conditions noted are these: in vivo.
Series [15] can be described thus: Permeability from apical to basolateral side of Caco-2 cell membrane. In kind it is ADME, cell-based. As to conditions: human.
A short description of series [16]: Permeability from basolateral to apical side of Caco-2 cell membrane. It is filed as ADME, cell-based. As to conditions: human. On the technique in general: Caco-2 monolayers are a common model of the intestinal barrier.
The next series has as its target Casein kinase II (Homo sapiens, UniProt P19784+P67870+P68400). Put plainly: Inhibition of CK2. In kind it is protein-complex assay.

Sequence of MAP kinase-activated protein kinase 2 (P49137 whole entry): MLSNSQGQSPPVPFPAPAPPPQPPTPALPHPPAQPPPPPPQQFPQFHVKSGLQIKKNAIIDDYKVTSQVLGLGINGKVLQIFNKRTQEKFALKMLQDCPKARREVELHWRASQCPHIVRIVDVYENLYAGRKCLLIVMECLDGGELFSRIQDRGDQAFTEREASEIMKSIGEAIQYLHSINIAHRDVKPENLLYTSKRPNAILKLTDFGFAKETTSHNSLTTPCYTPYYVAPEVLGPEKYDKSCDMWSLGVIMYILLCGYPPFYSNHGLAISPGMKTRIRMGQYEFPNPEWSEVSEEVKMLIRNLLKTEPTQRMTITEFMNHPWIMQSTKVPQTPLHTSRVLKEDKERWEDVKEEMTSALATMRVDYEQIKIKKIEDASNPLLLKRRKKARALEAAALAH
Sequence of Ribosomal protein S6 kinase alpha-1 (Q15418 whole entry): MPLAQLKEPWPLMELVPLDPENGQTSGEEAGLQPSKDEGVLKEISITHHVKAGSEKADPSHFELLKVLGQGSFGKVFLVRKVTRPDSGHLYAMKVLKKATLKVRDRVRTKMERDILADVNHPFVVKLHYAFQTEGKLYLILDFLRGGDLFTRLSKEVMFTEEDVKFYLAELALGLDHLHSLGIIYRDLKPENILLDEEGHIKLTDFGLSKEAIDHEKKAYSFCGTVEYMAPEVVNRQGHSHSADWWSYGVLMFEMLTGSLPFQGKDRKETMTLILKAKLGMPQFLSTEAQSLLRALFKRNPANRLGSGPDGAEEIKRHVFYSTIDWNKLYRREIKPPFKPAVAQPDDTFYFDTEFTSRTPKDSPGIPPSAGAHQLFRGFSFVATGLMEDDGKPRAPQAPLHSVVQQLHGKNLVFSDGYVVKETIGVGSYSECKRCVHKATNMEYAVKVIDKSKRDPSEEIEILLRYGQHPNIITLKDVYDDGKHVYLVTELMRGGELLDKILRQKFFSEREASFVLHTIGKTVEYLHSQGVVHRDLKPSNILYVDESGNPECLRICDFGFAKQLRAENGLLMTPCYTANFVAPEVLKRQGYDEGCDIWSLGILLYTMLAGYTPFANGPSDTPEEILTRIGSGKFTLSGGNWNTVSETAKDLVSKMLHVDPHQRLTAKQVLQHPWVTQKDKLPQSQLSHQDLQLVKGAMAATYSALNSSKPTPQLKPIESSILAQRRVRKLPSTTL
Sequence of Casein kinase II (P67870 whole entry): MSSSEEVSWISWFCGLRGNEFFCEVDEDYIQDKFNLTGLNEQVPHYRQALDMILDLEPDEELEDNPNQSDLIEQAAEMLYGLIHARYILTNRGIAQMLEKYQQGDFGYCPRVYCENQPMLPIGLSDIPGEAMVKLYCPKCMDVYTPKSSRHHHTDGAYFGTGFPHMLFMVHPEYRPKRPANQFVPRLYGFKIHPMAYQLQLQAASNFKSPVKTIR
Sequence of Casein kinase II (P68400 whole entry): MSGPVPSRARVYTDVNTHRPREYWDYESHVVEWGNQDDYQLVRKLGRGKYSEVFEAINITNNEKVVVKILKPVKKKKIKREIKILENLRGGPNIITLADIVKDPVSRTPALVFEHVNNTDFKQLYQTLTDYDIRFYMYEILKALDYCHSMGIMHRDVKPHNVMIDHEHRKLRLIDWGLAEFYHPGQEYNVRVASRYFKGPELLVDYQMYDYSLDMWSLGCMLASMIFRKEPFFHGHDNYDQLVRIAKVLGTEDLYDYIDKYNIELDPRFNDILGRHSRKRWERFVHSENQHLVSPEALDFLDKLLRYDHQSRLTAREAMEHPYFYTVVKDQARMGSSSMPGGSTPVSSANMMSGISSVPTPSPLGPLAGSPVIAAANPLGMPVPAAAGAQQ
Sequence of Casein kinase II (P19784 whole entry): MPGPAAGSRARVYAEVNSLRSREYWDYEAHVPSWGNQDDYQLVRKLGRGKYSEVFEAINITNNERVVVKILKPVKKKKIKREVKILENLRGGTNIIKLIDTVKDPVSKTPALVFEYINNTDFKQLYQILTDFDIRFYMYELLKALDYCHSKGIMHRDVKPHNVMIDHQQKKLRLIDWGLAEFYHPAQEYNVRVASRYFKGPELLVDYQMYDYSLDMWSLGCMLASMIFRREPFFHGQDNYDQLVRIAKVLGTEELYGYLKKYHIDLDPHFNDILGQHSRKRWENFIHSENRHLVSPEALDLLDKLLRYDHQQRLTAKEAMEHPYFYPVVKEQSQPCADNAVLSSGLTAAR
Sequence of hERG (KCNH2) (Q12809 whole entry): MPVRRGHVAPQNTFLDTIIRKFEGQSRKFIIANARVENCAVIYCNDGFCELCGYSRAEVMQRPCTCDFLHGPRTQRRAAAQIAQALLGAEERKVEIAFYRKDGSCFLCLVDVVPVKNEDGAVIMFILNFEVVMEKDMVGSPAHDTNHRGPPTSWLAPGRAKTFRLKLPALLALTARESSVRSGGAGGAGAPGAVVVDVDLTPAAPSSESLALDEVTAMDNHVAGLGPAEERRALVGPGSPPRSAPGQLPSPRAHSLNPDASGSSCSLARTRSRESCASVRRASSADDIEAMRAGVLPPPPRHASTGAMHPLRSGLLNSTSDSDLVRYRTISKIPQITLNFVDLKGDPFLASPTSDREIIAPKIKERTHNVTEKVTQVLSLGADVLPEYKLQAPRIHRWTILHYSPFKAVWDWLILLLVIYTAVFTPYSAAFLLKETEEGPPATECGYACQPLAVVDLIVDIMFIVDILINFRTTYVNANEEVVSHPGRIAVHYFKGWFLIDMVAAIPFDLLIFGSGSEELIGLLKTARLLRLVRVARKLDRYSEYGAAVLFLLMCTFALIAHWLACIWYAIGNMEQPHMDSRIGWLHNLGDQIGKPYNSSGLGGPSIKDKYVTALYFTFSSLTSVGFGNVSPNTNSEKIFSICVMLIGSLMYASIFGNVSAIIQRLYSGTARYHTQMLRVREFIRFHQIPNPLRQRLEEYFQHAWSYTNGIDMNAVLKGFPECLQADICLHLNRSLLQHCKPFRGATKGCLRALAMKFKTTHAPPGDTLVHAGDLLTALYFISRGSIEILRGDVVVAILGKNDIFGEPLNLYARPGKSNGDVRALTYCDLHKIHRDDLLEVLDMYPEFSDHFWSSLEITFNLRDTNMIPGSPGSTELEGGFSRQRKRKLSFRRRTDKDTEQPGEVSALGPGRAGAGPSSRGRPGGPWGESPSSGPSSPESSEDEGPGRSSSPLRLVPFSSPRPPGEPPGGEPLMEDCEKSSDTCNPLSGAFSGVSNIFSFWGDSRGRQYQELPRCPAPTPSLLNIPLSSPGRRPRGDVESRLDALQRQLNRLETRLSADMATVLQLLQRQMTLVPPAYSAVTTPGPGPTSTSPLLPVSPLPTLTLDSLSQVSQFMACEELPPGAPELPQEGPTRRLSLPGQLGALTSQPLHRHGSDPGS

For orientation: IC50 means the concentration needed to halve the response being measured. On to `CC(C)(C)c1nnc2ccc(-c3ocnc3-c3ccc(F)cc3F)cn12`, for which the IC50 was over 10 µM in series [1]; 0.076 µM in the series listed under Homo sapiens; over 10 µM in series [2]; over 10 µM in series [3]; over 10 µM in [5]. The hepatic extraction ratio in series [4] was under 0.3.
As usually defined, the clearance is the volume of plasma or blood freed of the substance per unit of time. In general, solubility refers to the concentration that dissolves in the medium under given conditions. In general, inhibition refers to the drop in the measured response relative to a control, in per cent. The half-life is the time needed for the level to fall by half in the phase considered. The term ED50 denotes the dose that gives a 50% effect, or the effect in half of the subjects. As a reminder, the bioavailability is dose-corrected exposure relative to a reference, in per cent. With `CC(C)(C)c1nnc2ccc(-c3ocnc3-c3cc(F)c(F)cc3F)cn12`, the clearance in series [6] stood at 3 mL/min/kg; in series [7] it was 3.4 mL/min/kg. Besides, the IC50 in series [1] is over 10 µM; in the series listed under Homo sapiens, 0.063 µM; in [2] it was over 10 µM; in series [3] it was over 10 µM; in series [5], over 10 µM. For the same compound, the Vd in series [8] was found to be 0.6 L/kg; in [11] it was 1.2 L/kg. The compound further showed a solubility in [9] of 41 µg/mL (≈ 110 µM). At hERG (KCNH2), this compound came in with an inhibition at 3 µM of 5.9%. The half-life in [10] was 5.2 h; in [13], 2.6 h. The same compound had an ED50 in the series listed under Rattus norvegicus of 0.1 mg/kg. For the same compound, the bioavailability came out at 66% in [12] and 54% in series [14].
For `CCNc1nnc2ccc(-c3ocnc3-c3ccc(F)cc3)cn12`, the IC50 in [1] was over 10 µM; in the series listed under Homo sapiens, 0.865 µM; in series [2], over 10 µM; in series [3] it was over 10 µM; in series [5] it was over 10 µM.
Broadly, the Papp A→B is the apparent permeability from the apical to the basolateral side of a cell layer. What is called Papp B→A is the apparent permeability from the basolateral to the apical side of a cell layer. On to `CC(C)c1nnc2ccc(-c3c[nH]nc3-c3cc(F)ccc3F)cn12`, for which the IC50 in series [1] is over 10 µM; in the series listed under Homo sapiens, 0.18 µM; in series [2] it was over 10 µM; in [3], over 10 µM; in series [5] it was over 10 µM. In series [15], the Papp A→B was found to be 6 ×10⁻⁶ cm/s. In series [16], this compound showed a Papp B→A of 18 ×10⁻⁶ cm/s.
Take `CC(C)c1nnc2ccc(-c3ocnc3-c3ccccc3)cn12`: the IC50 in series [1] is over 10 µM; in the series filed under Homo sapiens it was 0.973 µM; in series [2], over 10 µM; on Casein kinase II it was over 10 µM; in [3], over 10 µM; in series [5] it was over 10 µM.

The record behind these values is ChEMBL document CHEMBL1145312, “Structure-activity relationships of triazolopyridine oxazole p38 inhibitors: identification of candidates for clinical development” (Bioorg Med Chem Lett, 2006).
